The record followed here is patent US4093720A, “Novel-17-spirosultines their corresponding hydroxy acids and compositions thereof” (Roussel Uclaf, priority 1976, dated 1978).

For one assay, the target named is T1, androgen receptors (Rattus norvegicus, UniProt P15207).
T1 construct: the prostate was removed from male rats castrated 24 hours earlier and was homogenized in a buffer; from tissue; host or cells: prostate cytosol (105,000g supernatant) of male rats castrated 24 hours earlier
T1 sequence (P15207 1-902): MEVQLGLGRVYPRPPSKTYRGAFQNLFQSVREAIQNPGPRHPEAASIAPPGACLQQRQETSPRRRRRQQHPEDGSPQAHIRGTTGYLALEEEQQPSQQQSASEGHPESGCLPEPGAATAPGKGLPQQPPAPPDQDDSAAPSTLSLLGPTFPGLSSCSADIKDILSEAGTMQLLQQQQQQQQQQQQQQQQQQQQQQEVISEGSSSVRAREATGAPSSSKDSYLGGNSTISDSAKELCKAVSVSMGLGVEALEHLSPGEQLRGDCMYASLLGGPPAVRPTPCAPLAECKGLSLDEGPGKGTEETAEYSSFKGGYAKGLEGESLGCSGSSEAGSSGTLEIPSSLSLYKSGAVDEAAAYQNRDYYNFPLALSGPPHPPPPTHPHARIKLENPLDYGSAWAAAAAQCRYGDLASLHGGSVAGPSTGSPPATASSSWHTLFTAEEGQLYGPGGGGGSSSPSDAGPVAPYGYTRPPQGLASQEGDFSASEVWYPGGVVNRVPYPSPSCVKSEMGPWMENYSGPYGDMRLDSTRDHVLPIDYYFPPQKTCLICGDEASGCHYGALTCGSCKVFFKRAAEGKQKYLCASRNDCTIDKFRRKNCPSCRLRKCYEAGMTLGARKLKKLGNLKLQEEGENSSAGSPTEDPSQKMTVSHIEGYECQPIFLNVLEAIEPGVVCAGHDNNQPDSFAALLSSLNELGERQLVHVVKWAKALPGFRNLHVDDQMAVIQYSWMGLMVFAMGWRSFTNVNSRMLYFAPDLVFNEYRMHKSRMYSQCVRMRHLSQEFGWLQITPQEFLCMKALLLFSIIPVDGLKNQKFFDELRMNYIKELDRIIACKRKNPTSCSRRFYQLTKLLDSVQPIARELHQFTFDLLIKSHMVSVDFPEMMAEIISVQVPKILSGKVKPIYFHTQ
Put plainly: Affinity for androgenic receptors (hormonal receptor test, rat prostate cytosol, tritiated product R). Format: binding, rats. The note with it: for affinity for androgen receptors (in words): conclusion from Table II; for RLA (relative affinity = 100 × CT/CX): prostate cytosol of castrated male rats, tritiated 17α-methyl-Δ4,9,11-estratriene-17β-ol-3-one, 0° C, 2 hours, testosterone = 100. The protocol: The test used was the hormonal receptor test described by Raynaud et al [J. Ster. Biochem., Vol. 6 (1975), p. 615-622] in which the prostate was removed from male rats castrated 24 hours earlier and was homogenized in a buffer: 10 millimole tromethamine, saccharose 0.25M, HCl for pH of 7.4. The homogenate was centrifuged at 105,000g for one hour and the surnageant liquid or "cytosol" was then adjusted to obtain a dilution of 1/5 (weight/volume). […] At the end of 2 hours, the radioactivity of tritiated product tied to the receptor was determined by the adsorption technique of carbondextran (1.25% to 0.625%).
B/T max. is the percentage of tritiated product R bound when no product was added and B/T min. is the percentage of tritiated product R bound when the mazimum quantity of cold product R is added. The intersections of line I50 and the curves permit the determination of the CT and CX values.

Assay [1] relates to activity of 1 μg/kg of aldosterone monoacetate. The assay is described as follows: Antialdosterone activity in surrenalectomized rats. Format: in vivo. The note with it: male Sprague-Dawley surrenalectomized rats; oral dose 5 mg/kg; 1 μg/kg aldosterone monoacetate s.c.; 4 hours urine collection. As to the method:
Male rats of the Sprague-Dawley strain weighing about 180 g were surrenalectomized and at that moment, the rats received with drinking water a physiological serum. […] At the end of 47 hours, the rats received orally either the B isomer of (17R) 6β, 7β-methylene-2'-oxidospiro-(Δ^4 -androstene-17,5'-[1',2']-oxathiolane)-3-one (product A), the B isomer of (17R) 6α, 7α-methylene-2'-oxidospiro-(Δ^4 -androstene-17,5'-[1',2']-oxathiolane)-3-one (product B) or the B isomer of (17R) 7α-methyl-2'-oxidospiro-(Δ^4 -androstene-17,5'-[1',2']-oxathiolane)-3-one (product C) in the form of a solution or suspension in 0.25% carboxymethylcellulose. One hour after the said oral administration, the animals received a hydrosaline overdose by intraperitoned administration of 5 ml of a […] physiological serum per 100 g of body weight and 1 μg/kg of a 2.5% alcoholic solution of aldosterone monoacetate by subcutaneous administration. The animals were placed in diuresis cages without food or drink for 4 hours and at the end of 4 hours, a forced miction was caused by pressure on the bladder. The volume of urine was brought to 50 ml and the amount of sodium and potassium was determined with an autoanalyser.

The structures appear in SMILES notation.

`C[C@]12CCC(=O)C=C1[C@@H]1C[C@@H]1[C@@H]1[C@@H]2CC[C@@]2(C)[C@H]1CC[C@@]21CCS(=O)O1` (single isomer, unassigned) [product A]: on androgen receptors, the “affinity for androgen receptors (in words)” value is “little or no affinity” and the “RLA (relative affinity = 100 × CT/CX)” value is listed as 0. Also, the “% inhibition of the activity of aldosterone monoacetate against the urinary sodium/potassium ratio” value in assay [1] is 25%.
For `C[C@]12CCC(=O)C=C1[C@H]1C[C@H]1[C@@H]1[C@@H]2CC[C@@]2(C)[C@H]1CC[C@@]21CCS(=O)O1` (single isomer, unassigned) [product B], in assay [1], the “% inhibition of the activity of aldosterone monoacetate against the urinary sodium/potassium ratio” value amounted to 19%.
Consider `C[C@@H]1CC2=CC(=O)CC[C@]2(C)[C@H]2CC[C@@]3(C)[C@@H](CC[C@@]34CCS(=O)O4)[C@H]12` (single isomer, unassigned) [product C], for which, on androgen receptors, the “affinity for androgen receptors (in words)” value is “little or no affinity” and the “RLA (relative affinity = 100 × CT/CX)” value came to 3.6. Also, in assay [1], the “% inhibition of the activity of aldosterone monoacetate against the urinary sodium/potassium ratio” value came to 22%.
